Assay results: article PMC7104226, “Antiepileptic Drug Carbamazepine Binds to a Novel Pocket on the Wnt Receptor Frizzled-8” (Journal of Medicinal Chemistry, 2020)

Biological target: T1, FZD8 (frizzled-8) cysteine-rich domain, FZD8CRD (Mus musculus, UniProt Q61091)
T1 construct: Extracellular CRD A28-R153, pHL-Avi3, BirA-biotinylated, secreted from HEK293T, immobilized on streptavidin SPR chip
T1 sequence (Q61091 28-153): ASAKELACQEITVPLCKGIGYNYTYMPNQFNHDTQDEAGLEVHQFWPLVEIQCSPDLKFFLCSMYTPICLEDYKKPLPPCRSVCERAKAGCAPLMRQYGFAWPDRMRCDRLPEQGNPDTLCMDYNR
Experiment: crystal structure at […] Å (N49E/N152E construct); SPR Kd on biotinylated FZD8CRD (A28-R153)
Type: binding

Kd: 17 µM
Structure (SMILES): NC(=O)N1c2ccccc2C=Cc2ccccc21 [compound 79, 5H-dibenzo[b,f]azepine-5-carboxamide]
